The IC50 is the concentration needed to halve the response being measured. Broadly, the AUC(0-t) is the area under the concentration-time curve up to a stated or last time point. A lower AUC(0-t) goes with less exposure. Usually CL/F stands for the apparent clearance, not corrected for the fraction that reaches the circulation. A word on the half-life: it is the time in which the quantity being followed falls by half. A high value points to slow loss. Usually clearance stands for a measure of how efficiently the substance is removed, as volume per time. A higher clearance goes with a high capacity for elimination. Broadly, the Cmax is the peak of the concentration-time curve. A word on the inhibition: it is the percentage by which the read-out fell short of the control. Read a low inhibition as a response near the control. Broadly, the bioavailability is dose-corrected exposure relative to a reference, in per cent. A low value points to poor availability. In general, MRT last refers to the average time that molecules of a dose stay in the body. Usually AUC stands for concentration integrated over time. High values mean more exposure, low ones less exposure.

Series [1] concerns the target T1, Tyrosine-protein kinase JAK3 (Homo sapiens, UniProt P52333).
T1 sequence (P52333 whole entry): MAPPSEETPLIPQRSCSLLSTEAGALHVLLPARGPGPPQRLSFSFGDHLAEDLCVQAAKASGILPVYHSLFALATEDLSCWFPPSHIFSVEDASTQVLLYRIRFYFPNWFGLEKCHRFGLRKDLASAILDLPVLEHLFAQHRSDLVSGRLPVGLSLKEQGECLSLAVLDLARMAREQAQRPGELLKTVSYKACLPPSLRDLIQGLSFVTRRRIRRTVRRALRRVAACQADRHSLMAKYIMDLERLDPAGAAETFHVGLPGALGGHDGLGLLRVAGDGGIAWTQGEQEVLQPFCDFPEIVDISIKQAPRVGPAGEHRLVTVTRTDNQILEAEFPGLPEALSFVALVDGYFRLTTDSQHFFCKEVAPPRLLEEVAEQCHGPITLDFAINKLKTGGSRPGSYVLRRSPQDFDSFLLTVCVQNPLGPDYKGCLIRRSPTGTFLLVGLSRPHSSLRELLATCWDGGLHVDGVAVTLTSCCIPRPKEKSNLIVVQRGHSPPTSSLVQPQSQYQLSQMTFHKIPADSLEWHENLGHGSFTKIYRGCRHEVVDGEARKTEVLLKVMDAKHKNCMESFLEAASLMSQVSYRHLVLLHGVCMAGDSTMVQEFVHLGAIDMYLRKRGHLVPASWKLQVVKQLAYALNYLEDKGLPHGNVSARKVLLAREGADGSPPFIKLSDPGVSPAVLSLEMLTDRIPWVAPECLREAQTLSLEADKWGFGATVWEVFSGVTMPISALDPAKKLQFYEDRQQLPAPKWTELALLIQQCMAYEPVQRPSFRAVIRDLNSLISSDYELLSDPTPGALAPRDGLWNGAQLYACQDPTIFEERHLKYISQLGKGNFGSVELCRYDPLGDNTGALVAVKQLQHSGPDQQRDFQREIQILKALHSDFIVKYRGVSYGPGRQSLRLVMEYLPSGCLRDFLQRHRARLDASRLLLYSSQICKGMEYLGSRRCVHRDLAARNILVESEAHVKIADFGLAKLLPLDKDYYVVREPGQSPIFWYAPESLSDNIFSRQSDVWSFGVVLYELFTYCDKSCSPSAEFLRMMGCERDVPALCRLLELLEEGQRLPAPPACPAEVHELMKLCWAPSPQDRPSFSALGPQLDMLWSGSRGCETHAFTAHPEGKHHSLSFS
Description: Inhibition of JAK3 (unknown origin) using TK-substrate-biotin as substrate preincubated for 5 mins followed by substrate addition and measured by 30 mins by HTRF assay

The target in series [2] is Tyrosine-protein kinase JAK2 (Homo sapiens, UniProt O60674).
Description: Inhibition of JAK2 (unknown origin) using TK-substrate-biotin as substrate preincubated for 5 mins followed by substrate addition and measured by 30 mins by HTRF assay
The nature of series [3]: AUC (0 to t) in Sprague-Dawley rat at 2.5 mg/kg, iv after 2 mins to 24 hrs by LC-MS/MS analysis. The series is classed as ADME, organism-based. Set-up: time 0.033-24 hr, dose 2.5 mg/kg, route intravenous. The following applies: in vivo.
Series [4] has as its system Rattus norvegicus. The series is classed as functional.
Series [5] in a line: in vivo. As to conditions: Sprague-Dawley, rat, po, 10 mg/kg.
The conditions of series [6]: rat, in vivo, po, 10 mg/kg.
The nature of series [7]: in vivo. The following applies: Sprague-Dawley, rat, po, 10 mg/kg. This is another data set of the same source.
The nature of series [8]: Clearance in Sprague-Dawley rat at 2.5 mg/kg, iv after 2 mins to 24 hrs by LC-MS/MS analysis. The series is classed as ADME, organism-based. As to conditions: in vivo.
Series [9] is described as follows: in vivo. The following applies: Sprague-Dawley, rat, po, 10 mg/kg. The source holds these as a separate data set.
A short description of series [10]: Volume of distribution in Sprague-Dawley rat at 2.5 mg/kg, iv after 2 mins to 24 hrs by LC-MS/MS analysis. The series is classed as ADME, organism-based. As to conditions: in vivo, read-out: Vz.
Series [11] deals with T2, hERG (KCNH2) (Homo sapiens, UniProt Q12809). Briefly: Inhibition of human ERG at 3 uM relative to control.
The target of series [12] is T2, hERG (KCNH2). Briefly: Inhibition of human ERG at 30 uM relative to control.
Series [13] is described as follows: Cmax in Sprague-Dawley rat at 2.5 mg/kg, iv after 2 mins to 24 hrs by LC-MS/MS analysis. The series is classed as ADME, organism-based. Set-up: dose 2.5 mg/kg, route intravenous. The following applies: in vivo.
Series [14] in a line: Half life in Sprague-Dawley rat at 2.5 mg/kg, iv after 2 mins to 24 hrs by LC-MS/MS analysis. The series is classed as ADME, organism-based. The following applies: in vivo.
A short description of series [15]: Oral bioavailability in Sprague-Dawley rat at 10 mg/kg after 2 mins to 24 hrs by LC-MS/MS analysis. Type of series: ADME, organism-based. The following applies: in vivo.
Series [16] can be described thus: in vivo. The following applies: Sprague-Dawley, rat, po, 10 mg/kg. This is another data set of the same source.
Series [17] deals with Non-receptor tyrosine-protein kinase TYK2 (Homo sapiens, UniProt P29597).
Description: Inhibition of Tyk2 (unknown origin)
In series [18] the test system is Rattus norvegicus. Type of series: functional. This is another data set of the same source.
Series [19] in a line: in vivo. As to conditions: rat, po, 5 mg/kg.
In series [20] the target is Voltage-gated inwardly rectifying potassium channel KCNH2 (Homo sapiens, UniProt Q12809). Briefly: Inhibition of human ERG.
The nature of series [21]: in vivo. The following applies: Sprague-Dawley, rat, po, 10 mg/kg. The source holds these as a separate data set.
In series [22] the target is Tyrosine-protein kinase JAK1 (Homo sapiens, UniProt P23458).
Description: Inhibition of JAK1 (unknown origin) using TK-substrate-biotin as substrate preincubated for 5 mins followed by substrate addition and measured by 30 mins by HTRF assay
The target in series [23] is T2, hERG (KCNH2). Briefly: Inhibition of human ERG at 0.3 uM relative to control.
Series [24] in a line: MRT (0 to t) in Sprague-Dawley rat at 2.5 mg/kg, iv after 2 mins to 24 hrs by LC-MS/MS analysis. The series is classed as ADME, organism-based. As to conditions: in vivo.

T2 sequence (Q12809 whole entry): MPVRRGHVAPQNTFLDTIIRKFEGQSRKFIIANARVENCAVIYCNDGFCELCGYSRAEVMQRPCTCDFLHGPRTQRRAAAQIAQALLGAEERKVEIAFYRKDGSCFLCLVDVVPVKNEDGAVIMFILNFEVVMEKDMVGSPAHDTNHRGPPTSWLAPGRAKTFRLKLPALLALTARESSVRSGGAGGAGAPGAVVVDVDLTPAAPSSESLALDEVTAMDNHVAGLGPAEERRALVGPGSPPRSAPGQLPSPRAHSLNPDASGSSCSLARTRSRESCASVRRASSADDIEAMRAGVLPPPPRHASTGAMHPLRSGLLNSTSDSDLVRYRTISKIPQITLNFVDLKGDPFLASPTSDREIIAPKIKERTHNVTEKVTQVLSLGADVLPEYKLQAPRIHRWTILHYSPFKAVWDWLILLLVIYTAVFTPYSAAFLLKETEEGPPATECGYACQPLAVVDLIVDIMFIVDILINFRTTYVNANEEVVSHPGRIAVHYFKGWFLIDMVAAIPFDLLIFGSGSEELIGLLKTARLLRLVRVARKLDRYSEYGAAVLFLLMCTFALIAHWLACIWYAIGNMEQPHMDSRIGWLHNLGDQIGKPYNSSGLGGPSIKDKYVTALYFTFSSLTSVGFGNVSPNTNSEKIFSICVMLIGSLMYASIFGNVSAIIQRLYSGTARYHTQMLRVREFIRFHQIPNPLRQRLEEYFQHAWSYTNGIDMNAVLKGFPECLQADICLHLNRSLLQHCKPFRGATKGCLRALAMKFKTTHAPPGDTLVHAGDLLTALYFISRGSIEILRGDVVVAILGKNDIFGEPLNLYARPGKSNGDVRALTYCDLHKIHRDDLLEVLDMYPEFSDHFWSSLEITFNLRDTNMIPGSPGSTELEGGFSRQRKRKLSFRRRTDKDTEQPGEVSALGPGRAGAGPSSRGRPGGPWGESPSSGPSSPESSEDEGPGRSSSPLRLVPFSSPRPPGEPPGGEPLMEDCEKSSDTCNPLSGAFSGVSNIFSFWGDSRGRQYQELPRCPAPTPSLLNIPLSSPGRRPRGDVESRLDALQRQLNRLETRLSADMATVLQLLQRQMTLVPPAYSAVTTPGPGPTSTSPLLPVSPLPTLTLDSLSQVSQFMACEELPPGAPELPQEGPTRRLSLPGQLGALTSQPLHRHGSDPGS
Tyrosine-protein kinase JAK2, sequence (O60674 whole entry): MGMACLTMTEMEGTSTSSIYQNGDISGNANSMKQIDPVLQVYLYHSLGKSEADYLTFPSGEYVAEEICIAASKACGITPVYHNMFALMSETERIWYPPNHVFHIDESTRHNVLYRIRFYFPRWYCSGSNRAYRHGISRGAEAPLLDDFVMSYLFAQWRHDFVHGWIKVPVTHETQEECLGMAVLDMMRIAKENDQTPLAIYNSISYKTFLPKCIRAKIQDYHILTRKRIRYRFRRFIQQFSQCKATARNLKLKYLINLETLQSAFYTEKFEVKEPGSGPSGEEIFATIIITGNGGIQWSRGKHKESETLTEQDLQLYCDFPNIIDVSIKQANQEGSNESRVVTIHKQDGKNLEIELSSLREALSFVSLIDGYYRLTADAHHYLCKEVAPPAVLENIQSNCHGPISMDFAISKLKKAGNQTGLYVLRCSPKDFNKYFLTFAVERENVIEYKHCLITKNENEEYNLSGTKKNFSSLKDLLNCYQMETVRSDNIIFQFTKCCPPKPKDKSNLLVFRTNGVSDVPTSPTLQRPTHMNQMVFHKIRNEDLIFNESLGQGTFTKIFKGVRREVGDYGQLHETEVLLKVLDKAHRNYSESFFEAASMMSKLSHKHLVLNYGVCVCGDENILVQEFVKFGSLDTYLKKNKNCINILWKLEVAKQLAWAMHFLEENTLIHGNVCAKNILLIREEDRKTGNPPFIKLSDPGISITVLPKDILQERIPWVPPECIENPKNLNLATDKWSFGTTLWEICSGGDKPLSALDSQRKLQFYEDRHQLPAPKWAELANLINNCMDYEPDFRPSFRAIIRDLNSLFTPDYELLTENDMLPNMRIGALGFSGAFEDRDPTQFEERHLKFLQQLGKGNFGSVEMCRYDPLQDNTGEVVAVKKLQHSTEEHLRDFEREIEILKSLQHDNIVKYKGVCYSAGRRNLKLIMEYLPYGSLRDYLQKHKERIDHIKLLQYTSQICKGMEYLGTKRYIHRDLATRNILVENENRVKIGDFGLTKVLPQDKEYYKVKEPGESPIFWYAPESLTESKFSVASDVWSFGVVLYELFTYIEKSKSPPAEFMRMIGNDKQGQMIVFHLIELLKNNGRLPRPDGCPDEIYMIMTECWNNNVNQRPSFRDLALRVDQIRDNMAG
Non-receptor tyrosine-protein kinase TYK2, sequence (P29597 whole entry): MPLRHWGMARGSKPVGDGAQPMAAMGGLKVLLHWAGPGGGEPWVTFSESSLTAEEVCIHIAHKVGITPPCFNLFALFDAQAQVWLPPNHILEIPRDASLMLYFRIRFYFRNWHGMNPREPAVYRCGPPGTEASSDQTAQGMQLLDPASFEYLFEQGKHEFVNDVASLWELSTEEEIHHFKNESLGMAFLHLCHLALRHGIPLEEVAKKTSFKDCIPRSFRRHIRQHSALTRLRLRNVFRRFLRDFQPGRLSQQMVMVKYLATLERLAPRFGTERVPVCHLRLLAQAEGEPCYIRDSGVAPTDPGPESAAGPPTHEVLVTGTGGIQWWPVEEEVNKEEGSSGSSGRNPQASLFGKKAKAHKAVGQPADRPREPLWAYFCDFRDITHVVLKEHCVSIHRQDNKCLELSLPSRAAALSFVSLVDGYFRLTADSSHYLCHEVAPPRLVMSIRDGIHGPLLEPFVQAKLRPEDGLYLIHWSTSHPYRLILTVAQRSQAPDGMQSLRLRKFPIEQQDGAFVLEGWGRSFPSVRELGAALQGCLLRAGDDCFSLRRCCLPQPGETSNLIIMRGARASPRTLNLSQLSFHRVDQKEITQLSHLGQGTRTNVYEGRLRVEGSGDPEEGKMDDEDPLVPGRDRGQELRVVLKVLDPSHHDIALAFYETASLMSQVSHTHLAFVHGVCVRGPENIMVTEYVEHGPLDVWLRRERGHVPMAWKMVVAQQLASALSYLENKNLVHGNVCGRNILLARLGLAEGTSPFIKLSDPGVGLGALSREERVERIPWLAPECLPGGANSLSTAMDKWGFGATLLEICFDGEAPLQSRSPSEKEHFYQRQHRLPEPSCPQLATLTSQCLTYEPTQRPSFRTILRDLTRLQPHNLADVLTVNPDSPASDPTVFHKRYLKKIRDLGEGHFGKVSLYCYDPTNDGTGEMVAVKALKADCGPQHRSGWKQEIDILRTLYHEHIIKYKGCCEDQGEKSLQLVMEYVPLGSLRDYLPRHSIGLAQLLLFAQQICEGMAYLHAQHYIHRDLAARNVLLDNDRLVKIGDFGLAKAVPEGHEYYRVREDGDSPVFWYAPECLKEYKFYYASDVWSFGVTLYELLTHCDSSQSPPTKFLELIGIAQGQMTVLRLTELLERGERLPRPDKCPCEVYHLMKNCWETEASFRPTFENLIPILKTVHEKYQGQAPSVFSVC
Tyrosine-protein kinase JAK1, sequence (P23458 whole entry): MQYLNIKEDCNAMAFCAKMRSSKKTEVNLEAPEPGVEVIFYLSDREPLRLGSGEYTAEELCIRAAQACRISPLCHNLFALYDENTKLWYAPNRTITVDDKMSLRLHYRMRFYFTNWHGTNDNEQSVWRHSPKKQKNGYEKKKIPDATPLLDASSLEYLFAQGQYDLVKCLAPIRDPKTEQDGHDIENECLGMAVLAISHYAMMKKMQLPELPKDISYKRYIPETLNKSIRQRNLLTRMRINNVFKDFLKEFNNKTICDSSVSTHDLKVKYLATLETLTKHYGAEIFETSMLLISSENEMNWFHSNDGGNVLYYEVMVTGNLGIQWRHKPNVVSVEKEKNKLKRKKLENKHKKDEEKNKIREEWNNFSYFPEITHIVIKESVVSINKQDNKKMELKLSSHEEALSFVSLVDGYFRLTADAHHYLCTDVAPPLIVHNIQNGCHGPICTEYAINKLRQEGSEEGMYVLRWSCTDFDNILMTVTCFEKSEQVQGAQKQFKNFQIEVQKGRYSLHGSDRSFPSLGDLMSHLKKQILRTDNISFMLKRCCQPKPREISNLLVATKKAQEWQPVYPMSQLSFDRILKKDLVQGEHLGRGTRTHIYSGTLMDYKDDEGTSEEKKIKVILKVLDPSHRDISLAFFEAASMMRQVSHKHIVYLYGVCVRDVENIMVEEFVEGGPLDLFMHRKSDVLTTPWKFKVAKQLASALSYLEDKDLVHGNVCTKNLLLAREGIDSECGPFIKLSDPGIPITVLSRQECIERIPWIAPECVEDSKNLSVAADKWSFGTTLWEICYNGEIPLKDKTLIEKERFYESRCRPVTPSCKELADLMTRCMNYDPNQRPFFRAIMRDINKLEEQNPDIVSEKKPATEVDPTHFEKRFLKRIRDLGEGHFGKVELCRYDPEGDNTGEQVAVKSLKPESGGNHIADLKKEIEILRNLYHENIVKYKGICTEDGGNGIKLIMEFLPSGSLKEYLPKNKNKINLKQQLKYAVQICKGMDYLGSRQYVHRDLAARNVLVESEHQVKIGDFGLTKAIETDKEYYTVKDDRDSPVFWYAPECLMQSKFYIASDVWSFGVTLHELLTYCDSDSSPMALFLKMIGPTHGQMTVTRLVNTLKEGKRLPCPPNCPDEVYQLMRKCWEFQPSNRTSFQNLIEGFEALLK

Turning to `COc1cc(Nc2ncc(C)c(-c3cc4c(o3)CCN(C(=O)CC#N)C4)n2)cc(OC)c1OC`, the values for the IC50 in [1] and in series [2] were 12 nM and 1.6 nM, respectively.
For `Cc1cnc(Nc2cc(F)c(N3CCOCC3)c(F)c2)nc1-c1cc2c(o1)CCN(C(=O)CC#N)C2` the same measures were 88.1 nM and 4.2 nM.
For `Cc1cnc(Nc2cccc(N3CCN(C)CC3)c2)nc1-c1cc2c(o1)CCN(S(C)(=O)=O)C2` the same measures were 751 nM and 112 nM.
For `Cc1cnc(Nc2ccccc2)nc1-c1cc2c(o1)CCN(S(C)(=O)=O)C2` the same measures were 153 nM and 2.7 nM.
For the compound `Cc1cnc(Nc2cc(F)c(N3CCOCC3)c(F)c2)nc1-c1cc2c(o1)CCN(S(C)(=O)=O)C2`, the IC50 in series [1] was determined as 195 nM; in [2], 3.7 nM.
For `Cc1cnc(Nc2ccc(N3CCOCC3)cc2)nc1-c1cc2c(o1)CCN(C(=O)c1cccc(C#N)c1)C2` the same measures were 552 nM and 35.4 nM.
Take `CCC(=O)N1CCc2oc(-c3nc(Nc4ccc(N5CCOCC5)cc4)ncc3C)cc2C1`: the IC50 worked out at 112 nM in series [1] and 5.8 nM in series [2].
For `Cc1cnc(Nc2ccc(-n3ccnc3)cc2)nc1-c1cc2c(o1)CCN(S(C)(=O)=O)C2` the same measures were 91.3 nM and 10.8 nM.
Consider `Cc1cnc(Nc2ccc(F)cc2)nc1-c1cc2c(o1)CCN(C(=O)CC#N)C2`, for which the IC50 in [1] worked out at 95.7 nM. This counts as double-digit nanomolar.
`Cc1cnc(Nc2ccc(OCCN3CCCC3)cc2)nc1-c1cc2c(o1)CCN(S(C)(=O)=O)C2`: the results for the half-inhibitory concentration (IC50) in series [1] and in series [2] were 56.7 nM and 4.1 nM, respectively.
For `Cc1cnc(Nc2ccc(N3CCN(C)CC3)cc2)nc1-c1cc2c(o1)CCN(C(=O)CC#N)C2` the same measures were 33.7 nM and 1.6 nM.
For `Cc1cnc(Nc2ccc(N3CCOCC3)cc2)nc1-c1cc2c(o1)CCN(C(=O)C(C)C)C2` the same measures were 32.4 nM and 6.4 nM.
In the same order, the values of `Cc1cnc(Nc2ccc(N3CCOCC3)cc2)nc1-c1cc2c(o1)CCN(C(=O)c1ccc(C#N)cc1)C2` are 431 nM and 28.8 nM.
For `Cc1cnc(Nc2ccc([N+](=O)[O-])cc2)nc1-c1cc2c(o1)CCN(C(=O)CC#N)C2`, the IC50 in series [1] is 275 nM; in series [2], 14.2 nM.
In the same order, the values of `Cc1cnc(Nc2ccc(OCCN3CCCC3)cc2)nc1-c1cc2c(o1)CCN(C(=O)CC#N)C2` are 52 nM and 9.6 nM.
In the same order, the values of `Cc1cnc(Nc2ccc(F)cc2)nc1-c1cc2c(o1)CCN(S(C)(=O)=O)C2` are 5080 nM and 12.1 nM.
In the same order, the values of `Cc1cnc(Nc2ccccc2)nc1-c1cc2c(o1)CCN(C(=O)CC#N)C2` are 94.7 nM and 2.9 nM.
As to `Cc1cnc(Nc2ccc(N3CCOCC3)cc2)nc1-c1cc2c(o1)CCN(C(=O)CC#N)C2`, the AUC(0-t) worked out at 1000 ng·h/mL in [3] and 2190 ng·h/mL in “in vivo [21]”. Moreover, the Activity in the series on Rattus norvegicus [4] was 14.1%; in the series on Rattus norvegicus [18], 113.2%. Besides, the CL/F in “in vivo [5]” was 71.8 mL/min/kg. In series [6], this compound came in with a Vz of 17.82 L/kg. The half-maximal inhibitory concentration (IC50) in [1] is 7.6 to 13.5 nM; in series [2], 0.5 to 0.7 nM; in series [17], 3 nM; in series [20], more than 30000 nM; in series [22], 5.1 nM. For the same compound, the half-life in the series “in vivo [7]” is 2.91 h; in series [14], 0.55 h. The same compound gave a clearance in series [8] of 42 mL/min/kg. The Cmax came out at 540 ng/mL in the series “in vivo [9]” and 2340 ng/mL in [13]. For the same compound, in series [10], the Vd came out at 2 L/kg. Moreover, at hERG (KCNH2) [11], at 3 µM the inhibition was 11.2%. The compound also had an inhibition at 30 µM against hERG (KCNH2) [12] of 16.4%. Moreover, the bioavailability in [15] came to 54.8%. Also, the MRT last came out at 3.49 h in “in vivo [16]” and 0.5 h in series [24]. This compound also displayed an exposure (AUC) at 240 h in the series “in vivo [19]” of 1490 ng·h/mL. The compound also had an inhibition at 0.3 µM at hERG (KCNH2) [23] of 1.9%.
